{"source": "paper PMC3951351", "about": "(Biochemistry, 2009)", "target": "T1, MreB (MreB1) (Thermotoga maritima, UniProt Q9WZ57)", "T1 sequence (Q9WZ57 1-336)": "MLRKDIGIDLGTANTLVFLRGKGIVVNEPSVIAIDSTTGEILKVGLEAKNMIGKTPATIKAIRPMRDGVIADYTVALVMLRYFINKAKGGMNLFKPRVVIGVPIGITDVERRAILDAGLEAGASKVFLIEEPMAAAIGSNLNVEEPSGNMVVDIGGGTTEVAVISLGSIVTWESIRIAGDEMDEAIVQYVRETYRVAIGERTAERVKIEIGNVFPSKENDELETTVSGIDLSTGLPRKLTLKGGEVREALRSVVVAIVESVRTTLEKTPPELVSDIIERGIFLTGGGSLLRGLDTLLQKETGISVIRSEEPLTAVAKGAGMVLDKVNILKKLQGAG", "assay": "STD NMR titration", "assay_type": "binding", "data": [{"smiles": "N=C(N)SCc1ccc(Cl)c(Cl)c1", "note": "[A22, S-(3,4-dichlorobenzyl)isothiourea]", "values": [{"measurement": "Kd", "value": "1320 ± 140", "unit": "nM"}]}]}
